The text below walks through data of patent publication US20220274997A1, “PIM KINASE INHIBITOR COMPOSITIONS AND USES THEREOF” (Snap Bio, Inc., priority 2019, published 2022).

pEC50, pIC50: −log10 of the molar value. Some results are limits rather than exact numbers.

One data set has as its system DU-145. In words: CellTiter-Glo cancer cell growth inhibition, DU-145. Particulars: Homo sapiens, DU-145, 72 h. It is filed as cell-based. From the text:
(§1) The CellTiter-Glo® Luminescent Cell Viability Assay is a sensitive homogeneous method to determine the number of viable cells in culture, Detection is based on using the luciferase reaction to measure the amount of ATP from viable cells. The amount of ATP in cells correlates with cell viability. Within minutes after a loss of membrane integrity, cells lose the ability to synthesize ATP, and endogenous ATPases destroy any remaining ATP; thus the levels of ATP fall precipitously. The CellTiter-Glo® Reagent does three things upon addition to cells. It lyses cell membranes to release ATP; it inhibits endogenous ATPases, and it provides luciferin, luciferase and other reagents necessary to measure ATP using a bioluminescent reaction. The unique properties of a proprietary stable luciferase. There is a linear relationship (r2=0.99) between the luminescent signal and the number of cells from 0 to 50.000 cells per well.
All assays were performed by Reaction Biology Corporation (Malvern, Pa.) or ChemDiv, Inc. (San Diego, Calif.). […]
Conditions: 37° C., air 95%; HEPA-filtered carbon dioxide (CO2) 5%, humidified atmosphere. • Cells were grown in 175 cm^2 flasks to 80-90% of confluency. • Culture media was aspirated and cell layer was briefly rinsed with Versen solution to remove all traces of serum. • 2 mL of accutase was added to cells. • Flasks were retuned to incubator for 5 min to allow cell detachment. • Add 6.0 mL of complete growth medium. • Single cell suspension was created by gently pipetting. • Cells were counted using a Hematocytometer and a suspension with the desired cell concentration was prepared. […]
Stock solutions ([…]) were diluted with cell culture media to produce 500× serial dilutions and […] of final compound dilutions were added to cells in assay plates to screen a series of 10 doses starting at 100 mM. […] Luminescence intensity was measured for each well using the Tecan M 1000 microplate reader after 5 min of incubation with CellTiter-Glo Reagent. The number of viable cells in culture was determined based on quantitation of the ATP present in each culture well. […]
In general terms: ATP-based viability assays read luminescence as a measure of living cells.

For another data set, the target named is T1, PIM3 (Homo sapiens, UniProt Q86V86).
T1 construct: purchased SignalChem, Richmond, Canada P37-10BG
In words: LANCE Ultra kinase assay, PIM3. In kind it is biochemical. Particulars: for pIC50: LANCE assay. From the text: (§2) The second assay used was Perkin Elmer's LANCE® Ultra kinase assay which uses a ULight™-labeled peptide substrate and an appropriate Europium-labeled anti-phospho antibody. When the substrate becomes phosphorylated by a kinase of interest, the phosphorylated site on the substrate is recognized by the Europium-labeled anti-phospho antibody. […] The intensity of light emission is proportional to the level of ULight peptide phosphorylation. A kinase inhibitor reduces the FRET signal, thus providing an accurate and sensitive measure of inhibition potency.
(§3) The assay was performed in 384-well plates in two steps: PIM kinases were mixed with the ULight-substrate (CREBtide) in buffer and incubated for 10 min. Subsequently, ATP and molecules of the present disclosure were added in a kinase buffer at the appropriate concentration and the reactions were incubated for 1 hour, at room temperature in the dark. • After 1 h EDTA was added to stop the kinase reaction, Eu-W1024-labeled anti-phosphoserine-CREB (Ser133) Antibody (anti-phosphoCREBtide specific antibody) was added to the reaction in LANCE Detection buffer. The mixture was allowed to incubate for 30 min to allow binding of the antibody to the phosphorylated site before the plate was read using a Tecan microplate reader
(§4) Kinase Assay Buffer—50 mM HEPES pH7.0.1 mM EGTA, 10 mM MgCl2, 0.01% BRU-35.
(§5) The inhibitory activity of each compound against PIM kinases was measured with the LANCE® Ultra Kinase Assays by ChemDiv, Inc. (San Diego, Calif.).

The next data set concerns Huh7. As to the kind of experiment: CellTiter-Glo cancer cell growth inhibition, Huh7. It is filed as cell-based. Particulars: Homo sapiens, Huh-7, 72 h.
Excerpt: as §1, with “luciferase.” for “luciferase. There is a linear relationship (r2=0.99) between the luminescent signal and the number of cells from 0 to 50.000 cells per well.”
(§6) All assays were performed by Reaction Biology Corporation (Malvern, Pa.) or ChemDiv, Inc. (San Diego, Calif.). All cell lines were purchased from American Type Culture Collection (ATCC, Manassas, Va.), except Huh 7 (RIKEN, Toyo, Japan) and HepaRG (Life Technologies, Carlsbad, Calif.).
(§7) Stock solutions ([…]) were diluted with cell culture media to produce 500× serial dilutions and […] of final compound dilutions were added to cells in assay plates to screen a series of 10 doses starting at […]. Final DMSO concentration was 0.2%. Assay plates are centrifuged at 100 rpm, 1 minute and kept at 37° C., 5% CO2, humidified atmosphere. […] Luminescence intensity was measured for each well using the Tecan M 1000 microplate reader after 5 min of incubation with CellTiter-Glo Reagent. The number of viable cells in culture was determined based on quantitation of the ATP present in each culture well. […] The EC50 curves were plotted and […] values were calculated using the GraphPad Prism 4 program based on a sigmoidal dose-response equation.

In the next data set the test system is A673. In words: CellTiter-Glo cancer cell growth inhibition, A673. It is filed as cell-based. Particulars: Homo sapiens, A673, 72 h.
Excerpt: as §1, with “luciferase.” for “luciferase. There is a linear relationship (r2=0.99) between the luminescent signal and the number of cells from 0 to 50.000 cells per well.”
as §6, §7

In another data set the target is T2, PIM2 (Homo sapiens, UniProt Q9P1W9).
T2 construct: purchased ProQinase, Freiburg, Germany 0223-0000-1
T2 sequence (Q9P1W9 whole entry): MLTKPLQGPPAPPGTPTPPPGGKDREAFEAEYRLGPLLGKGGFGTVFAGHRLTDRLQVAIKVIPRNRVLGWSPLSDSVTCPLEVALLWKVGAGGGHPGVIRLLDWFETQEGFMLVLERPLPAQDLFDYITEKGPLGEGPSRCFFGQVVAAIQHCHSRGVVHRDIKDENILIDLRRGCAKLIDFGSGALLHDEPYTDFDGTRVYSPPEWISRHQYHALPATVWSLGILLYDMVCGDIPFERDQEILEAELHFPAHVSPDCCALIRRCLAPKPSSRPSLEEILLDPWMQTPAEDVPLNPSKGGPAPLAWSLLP
As to the kind of experiment: LANCE Ultra kinase assay, PIM2. It is filed as biochemical.
Excerpt: as §2, §3, §4, §5

For data set [1], the system named is Hepa1-6 mouse liver cancer cells. In words: Hepa1-6 liver cancer xenograft mice. In kind it is in vivo. How it is done: Hepa1-6 mouse liver cancer cells are suspended in Hank's balanced salt solution (HBSS)(2×10^7 cells/mL), and the suspension (100 μL) was subcutaneously injected into the back flank of six female CD57 immunocompetent mice. After growing for 21 days, the tumors were resected, cut into small pieces, and inserted under the skin on each back flank of twelve female CD57 mice (24 tumors total). Mice were maintained for 15 days following tumor insertion to establish robust and consistent tumor growth. The mice were randomly split into six groups of two mice each (two tumors per mouse). Alter establishment of the Hepa1-6 xenografts in CD57 mice, tumor dimensions were measured every 2 days using micrometer calipers. Four groups were treated with compound 49 (PO: 25 mg/kg and 50 mg/k; IP: 10 mg/kg and 25 mg/kg) by both oral (PO, gavage) and intraperitoneal (IP) administration once per day (q.d.) and two control groups were administered vehicle only through the same routes for 10 consecutive days. Mice are weighed daily, starting from the date of Hepa1-6 tumor insertion (day 0). At 25 days after subcutaneous inoculation with Hepa1-6 tumors, mice were euthanized via carbon dioxide asphyxiation and all tumors were excised immediately following death, weighed and measured, and then snap-frozen in liquid nitrogen. Tumor volume (TV) was calculated by the following formula: TV=0.5ab^2, where a is tumor length in mm, and b is tumor width in mm. […] Body weight of mice in all groups was maintained within 10% of day 0 baseline.

Another data set concerns HepaRG. As to the kind of experiment: CellTiter-Glo cancer cell growth inhibition, HepaRG. It is filed as cell-based. Particulars: Homo sapiens, 72 h.
Excerpt: as §1, with “luciferase.” for “luciferase. There is a linear relationship (r2=0.99) between the luminescent signal and the number of cells from 0 to 50.000 cells per well.”
as §6, §7

The target in a further data set is T3, PIM1 (Homo sapiens, UniProt P11309).
T3 construct: purchased ProQinase, Freiburg, Germany 0186-0000-1
T3 sequence (P11309 whole entry): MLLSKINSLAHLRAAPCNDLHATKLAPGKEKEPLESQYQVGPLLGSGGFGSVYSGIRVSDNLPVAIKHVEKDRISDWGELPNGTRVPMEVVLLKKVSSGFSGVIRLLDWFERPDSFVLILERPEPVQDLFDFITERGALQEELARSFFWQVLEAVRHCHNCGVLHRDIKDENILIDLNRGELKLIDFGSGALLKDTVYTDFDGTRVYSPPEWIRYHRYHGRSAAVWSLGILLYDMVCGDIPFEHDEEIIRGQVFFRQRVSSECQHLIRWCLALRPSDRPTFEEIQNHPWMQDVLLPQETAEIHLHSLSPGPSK
As to the kind of experiment: LANCE Ultra kinase assay, PIM1. In kind it is biochemical.
Excerpt: as §2, §3, §4, §5
On the technique in general: TR-FRET usually uses a lanthanide donor and a delayed reading to cut background.

A further data set deals with HepG2. As to the kind of experiment: CellTiter-Glo cancer cell growth inhibition, HepG2. It is filed as cell-based, human. Particulars: Homo sapiens, HepG2, 72 h.
Excerpt: as §1, with “luciferase.” for “luciferase. There is a linear relationship (r2=0.99) between the luminescent signal and the number of cells from 0 to 50.000 cells per well.”
as §6, §7

By pEC50 is commonly meant −log10 of the EC50, conventionally taken in molar units. Read a high pEC50 as a low EC50. A word on the pIC50: it is the negative decadic logarithm of the IC50, by convention in mol/L. Low values mean a large IC50, high ones a small IC50.

In the data set on DU-145, `CN[C@@H]1C[C@H]2O[C@@](C)([C@@H]1OC)n1c3ccccc3c3c4c(c5c6ccccc6n2c5c31)C(=O)NC4` [Staurosporine, reference compound] had a pEC50 of 8.32.

For the molecule `O=C1NC(=O)c2c1c1c3cc(F)ccc3[nH]c1c1c2c2cc(F)ccc2n1CCN1CCOCC1` [Compound 49, 3,9-difluoro-12-(2-morpholin-4-ylethyl)-12,13-dihydro-5H-indolo[2,3-a]pyrrolo[3,4-c]carbazole-5,7(6H)-dione], the pIC50 is 9.15 against PIM3 (ATP 0.1 mM), under 6.00 at PIM2 (ATP 0.1 mM) and 8.40 on PIM1 (ATP 0.1 mM). Also, the pEC50 is 7.00 with Huh7, 7.24 in the data set with A673, under 5.00 in the data set with HepaRG and 7.40 with HepG2. For the same molecule, the “Reduction of tumor size relative to control tumors” value in [1] (IP injection 25 mg/kg q.d., 10 days, CD57 mice) is “up to 50%”. The Tumor reduction entry in data set [1] (PO dosing (25 mg/kg and 50 mg/kg) q.d., CD57 mice) is given as “No tumor reduction was observed”; in data set [1] (lower doses (IP 10 mg/kg) q.d., CD57 mice), “No tumor reduction was observed”. The “Body weight change vs day 0 baseline” value in data set [1] (all groups (PO 25, 50 mg/kg; IP 10, 25 mg/kg)) was at most 10%.

With `O=C1NC(=O)c2c1c1c3ccc(O)cc3[nH]c1c1c2c2ccc(O)cc2n1CCN1CCOCC1` [Compound 32, 2,10-dihydroxy-12-(2-morpholinoethyl)-12,13-dihydro-5H-indolo[2,3-a]pyrrolo[3,4-c]carbazole-5,7(6H)-dione], the “Selectivity among PIM1-3 (EC50 plots, FIGS. 2A, 2B)” value on PIM3 (LANCE Ultra assay) is “PIM1 and PIM3 selectivity”. For the same molecule, the pIC50 against PIM3 (ATP 0.1 mM) is 8.92; against PIM3 (ATP 1 mM) it was 8.31; on PIM2 (ATP 0.1 mM) it was 7.44; at PIM2 (ATP 1 mM), 6.32; on PIM1 (ATP 0.1 mM), 9.09; on PIM1 (ATP 1 mM) it was 8.70. In addition, the pEC50 in the data set with Huh7 is 6.62; in the data set on A673 it was 7.43; in the data set on HepaRG it was 6.60; in the data set on HepG2, 6.24.

With `C[C@@H]1CCC[C@H](C)N1CCn1c2cc(O)c(F)cc2c2c3c(c4c5cc(F)c(O)cc5[nH]c4c21)C(=O)NC3=O` [Compound 59, 12-{2-[(2R,6S)-2,6-dimethylpiperidin-1-yl]ethyl}-3,9-difluoro-2,10-dihydroxy-12,13-dihydro-5H-indolo[2,3-a]pyrrolo[3,4-c]carbazole-5,7(6H)-dione], the pIC50 is 8.52 against PIM3 (ATP 0.1 mM), 7.43 on PIM2 (ATP 0.1 mM) and 10.00 at PIM1 (ATP 0.1 mM). The pEC50 in the data set on Huh7 was 6.03; in the data set on A673, 8.51; in the data set on HepaRG, 7.70; in the data set with HepG2, 6.58.
